# Assay results published in doi:10.1101/2021.07.14.452003v1 (biorxiv, 2021).
# Biological target: M. tuberculosis RnhC (Mt RnhC; Rv2228c; M. tuberculosis RNase HI) (Mycobacterium tuberculosis, UniProt P9WLH5)
# Test: biochemical
# Sequence of M. tuberculosis RnhC (Mt RnhC; Rv2228c; M. tuberculosis RNase HI) (P9WLH5 whole entry): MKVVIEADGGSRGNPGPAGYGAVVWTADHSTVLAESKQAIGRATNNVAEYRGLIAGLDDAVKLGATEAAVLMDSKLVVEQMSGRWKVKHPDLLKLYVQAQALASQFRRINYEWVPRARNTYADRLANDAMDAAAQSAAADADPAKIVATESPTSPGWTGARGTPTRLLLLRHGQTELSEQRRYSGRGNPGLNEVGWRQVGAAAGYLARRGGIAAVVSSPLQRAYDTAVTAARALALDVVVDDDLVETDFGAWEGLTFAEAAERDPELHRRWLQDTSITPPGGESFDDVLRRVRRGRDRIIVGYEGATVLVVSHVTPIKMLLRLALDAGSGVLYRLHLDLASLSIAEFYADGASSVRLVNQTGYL
row,Structure (SMILES),IC50
1,Oc1ccc(-c2csc(Nc3ccccn3)n2)cc1O [NSC353720],12 µM
2,O=S(=O)(N/N=C/c1c(O)ccc2ccccc12)c1cc(Cl)c(Cl)cc1Cl [NSC99726],45 µM
3,COc1ccc(C2COc3cc(O)c(O)cc3C2)cc1 (stereo not shown) [NSC600285],17 µM
4,CC(C)c1ccc(O)c(=O)c(O)c1 [NSC18806],32 µM
